Assay [1] deals with T1, C5a anaphylatoxin chemotactic receptor 1 (Homo sapiens) (UniProt P21730).
T1 sequence (whole entry): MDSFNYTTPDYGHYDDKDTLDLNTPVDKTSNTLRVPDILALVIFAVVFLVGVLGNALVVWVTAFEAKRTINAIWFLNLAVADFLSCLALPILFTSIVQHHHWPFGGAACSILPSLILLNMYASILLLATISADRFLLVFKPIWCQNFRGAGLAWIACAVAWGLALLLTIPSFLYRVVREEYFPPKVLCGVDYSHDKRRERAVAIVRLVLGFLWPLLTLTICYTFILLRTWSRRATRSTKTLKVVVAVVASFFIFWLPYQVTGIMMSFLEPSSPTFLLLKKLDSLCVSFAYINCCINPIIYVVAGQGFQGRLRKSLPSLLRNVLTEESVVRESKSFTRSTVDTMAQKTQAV
Description: Nonspecific degranulation of polymorho neutrophils as measured by myeloperoxidase (MPO) release in a whole functional cell assay.

For assay [2], the target named is T2, C5a anaphylatoxin chemotactic receptor 1 (Homo sapiens, UniProt P21730).
T2 sequence (P21730 whole entry): T1 sequence (whole entry)
Description: Inhibitory activity against purified binding C5a anaphylatoxin chemotactic receptor.

Assay [3] addresses T2, C5a anaphylatoxin chemotactic receptor 1. Put plainly: Inhibitory activity for C5a anaphylatoxin chemotactic receptor binding using radiolabeled C5a receptor on neutrophil membranes (~2.0 uM).
The species entered for another assay is Homo sapiens. Put plainly: Degranulation of polymorho neutrophils as measured by myeloperoxidase (MPO) release in a whole functional cell assay.
Assay [4] has as its target T2, C5a anaphylatoxin chemotactic receptor 1. Description: Inhibitory activity against radiolabeled C5a receptor on neutrophil membranes expressing C5a anaphylatoxin chemotactic receptor.
Assay [5] addresses T1, C5a anaphylatoxin chemotactic receptor 1 (Homo sapiens). Description: Compound was evaluated for inhibition of radiolabeled C5a binding to its membrane C5a anaphylatoxin chemotactic receptor.

≈ marks a conversion by molar mass, not a printed value.

On to `CC[C@H](C)C[C@H]1CC[C@](O)([C@](C)(O)C(=O)N[C@@H]2C(=O)N3NCCC[C@@H]3C(=O)N(O)[C@@H](C)C(=O)NCC(=O)N3NCCC[C@H]3C(=O)N(O)[C@H](C)C(=O)O[C@H]2C(C)C)O[C@@H]1C`, for which, in assay [1], the Concentration causing nonspecific degranulation (MPO release) is 0.27 µg/mL. In addition, the figures for the IC50 in assay [2], in assay [3] and in assay [4] were 5.95 µM, 2.02 µM and 5.95 µM, respectively. Besides, the EC50 (commonly the concentration that produces a half-maximal response) in the assay filed under Homo sapiens worked out at 0.28 µg/mL (≈ 0.333 µM). Moreover, the Activity in assay [5] stood at 1.8 µg/mL.

These data come from ChEMBL document CHEMBL1151577, “The inhibition of C5a receptor binding by analogs of L-156,602, a cyclic hexadepsipeptide antibiotic” (Bioorg Med Chem Lett, 1992).
